A short description of experiment [1]: Inhibition of Hedgehog signaling pathway in mouse TM3 cells bearing pTA-8xGli-Luc reporter construct assessed as transcriptional modulation of Gli after 48 hrs by luciferase assay. Conditions: TM3, 48 h.
The target of experiment [2] is Protein smoothened (Mus musculus, UniProt P56726). Kind of experiment: Antagonist activity at mouse Smo receptor expressed in CHO cells by [3H]Hh-Ag binding assay. Type of experiment: cell-based.
In experiment [3] the target is Protein smoothened (Homo sapiens, UniProt Q99835). Kind of experiment: Antagonist activity at human Smo receptor expressed in CHO cells by [3H]Hh-Ag binding assay. Type of experiment: cell-based.
The target of experiment [4] is T1, Microsomal triglyceride transfer protein large subunit (Homo sapiens, UniProt P55157).
T1 sequence (P55157 whole entry): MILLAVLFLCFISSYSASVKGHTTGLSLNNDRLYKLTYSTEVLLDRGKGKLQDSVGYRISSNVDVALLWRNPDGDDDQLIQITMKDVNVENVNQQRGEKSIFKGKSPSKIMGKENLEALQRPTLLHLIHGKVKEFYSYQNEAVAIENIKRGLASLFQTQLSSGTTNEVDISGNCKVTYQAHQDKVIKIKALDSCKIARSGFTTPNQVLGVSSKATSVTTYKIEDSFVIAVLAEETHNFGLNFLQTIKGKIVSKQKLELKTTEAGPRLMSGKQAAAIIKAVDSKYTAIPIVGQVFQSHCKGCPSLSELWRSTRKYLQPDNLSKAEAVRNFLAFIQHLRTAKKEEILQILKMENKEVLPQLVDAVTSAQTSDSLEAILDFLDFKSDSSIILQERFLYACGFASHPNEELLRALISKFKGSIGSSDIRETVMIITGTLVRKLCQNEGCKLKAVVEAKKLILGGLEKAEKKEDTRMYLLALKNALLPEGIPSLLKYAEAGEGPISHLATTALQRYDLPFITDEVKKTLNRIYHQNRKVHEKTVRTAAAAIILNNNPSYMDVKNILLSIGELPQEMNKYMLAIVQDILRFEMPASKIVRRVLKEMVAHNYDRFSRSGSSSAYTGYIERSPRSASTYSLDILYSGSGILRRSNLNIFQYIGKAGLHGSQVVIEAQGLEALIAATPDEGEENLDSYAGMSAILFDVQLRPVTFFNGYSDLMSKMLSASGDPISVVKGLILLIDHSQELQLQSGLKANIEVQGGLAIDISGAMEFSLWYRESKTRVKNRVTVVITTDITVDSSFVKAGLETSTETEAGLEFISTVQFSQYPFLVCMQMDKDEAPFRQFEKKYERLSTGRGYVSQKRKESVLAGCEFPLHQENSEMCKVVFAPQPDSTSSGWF
Kind of experiment: Inhibition of MTP in human HepG2 cells assessed as apolipoprotein B production by ELISA. In kind it is cell-based. A general note: An ELISA detects its analyte on a solid surface through an enzyme-linked reagent.

Chain of Protein smoothened (Mus musculus, UniProt P56726) (P56726 whole entry): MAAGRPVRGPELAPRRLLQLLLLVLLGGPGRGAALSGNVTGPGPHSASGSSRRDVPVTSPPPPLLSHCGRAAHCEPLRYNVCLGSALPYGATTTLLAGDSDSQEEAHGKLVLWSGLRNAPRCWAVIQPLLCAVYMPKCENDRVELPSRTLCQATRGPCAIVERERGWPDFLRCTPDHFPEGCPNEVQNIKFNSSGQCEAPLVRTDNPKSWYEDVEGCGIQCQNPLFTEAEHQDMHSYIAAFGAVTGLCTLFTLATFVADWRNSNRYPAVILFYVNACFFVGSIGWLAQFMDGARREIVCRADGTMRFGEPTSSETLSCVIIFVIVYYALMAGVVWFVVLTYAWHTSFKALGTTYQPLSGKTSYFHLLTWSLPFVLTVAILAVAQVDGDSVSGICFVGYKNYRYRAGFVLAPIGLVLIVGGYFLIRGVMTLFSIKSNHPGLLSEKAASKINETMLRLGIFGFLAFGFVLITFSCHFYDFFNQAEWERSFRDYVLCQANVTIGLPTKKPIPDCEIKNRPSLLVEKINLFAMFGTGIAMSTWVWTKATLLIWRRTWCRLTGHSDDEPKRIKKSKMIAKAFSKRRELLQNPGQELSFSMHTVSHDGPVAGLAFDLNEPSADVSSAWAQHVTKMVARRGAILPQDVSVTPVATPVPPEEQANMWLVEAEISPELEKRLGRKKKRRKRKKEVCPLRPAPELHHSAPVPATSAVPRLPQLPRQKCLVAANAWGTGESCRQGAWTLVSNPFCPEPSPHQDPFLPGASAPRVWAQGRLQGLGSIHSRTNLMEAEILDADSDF
Chain of Protein smoothened (Homo sapiens, UniProt Q99835) (Q99835 whole entry): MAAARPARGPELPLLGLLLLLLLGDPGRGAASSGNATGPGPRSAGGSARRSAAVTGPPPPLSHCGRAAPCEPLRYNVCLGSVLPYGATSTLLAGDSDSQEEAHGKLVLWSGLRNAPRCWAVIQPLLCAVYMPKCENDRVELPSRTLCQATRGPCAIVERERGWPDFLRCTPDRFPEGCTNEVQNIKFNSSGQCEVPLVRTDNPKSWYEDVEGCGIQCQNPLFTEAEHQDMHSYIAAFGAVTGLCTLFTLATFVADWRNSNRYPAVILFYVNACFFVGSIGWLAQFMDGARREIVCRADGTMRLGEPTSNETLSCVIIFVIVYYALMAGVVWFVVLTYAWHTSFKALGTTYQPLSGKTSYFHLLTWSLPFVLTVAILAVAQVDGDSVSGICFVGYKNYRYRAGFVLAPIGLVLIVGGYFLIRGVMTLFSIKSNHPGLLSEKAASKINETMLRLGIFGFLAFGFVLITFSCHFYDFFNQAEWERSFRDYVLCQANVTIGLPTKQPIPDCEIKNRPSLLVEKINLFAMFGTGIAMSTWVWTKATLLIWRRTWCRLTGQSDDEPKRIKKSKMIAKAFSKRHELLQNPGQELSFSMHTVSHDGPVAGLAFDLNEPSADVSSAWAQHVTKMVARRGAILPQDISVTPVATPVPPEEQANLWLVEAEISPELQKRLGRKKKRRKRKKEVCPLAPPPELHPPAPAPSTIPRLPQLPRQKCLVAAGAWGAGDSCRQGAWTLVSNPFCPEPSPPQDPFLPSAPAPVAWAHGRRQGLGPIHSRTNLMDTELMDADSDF

One may read the IC50 as the concentration that gives 50% inhibition. On to `Cc1cccc(C(=O)Nc2ccc3c(c2)C[C@@H](NCc2ccccn2)C3)c1-c1ccc(C(F)(F)F)cc1`, for which the IC50 in experiment [1] turned out to be 0.1 µM; in experiment [2], 0.057 µM; in experiment [3], 0.12 µM; in experiment [4], 2.35 µM.

As to `Cc1ccc(CN[C@H]2Cc3ccc(NC(=O)c4cccc(C)c4-c4ccc(C(F)(F)F)cc4)cc3C2)o1`, the IC50 in experiment [1] was 0.008 µM; in experiment [2] it was 0.006 µM; in experiment [3] it was 0.01 µM.

Take `Cc1cccc(C(=O)Nc2ccc3c(c2)CC(NS(=O)(=O)c2ccccc2)C3)c1-c1ccc(C(F)(F)F)cc1` (racemic): the concentration for half-maximal inhibition (IC50) in experiment [1] was 1.25 µM.

As for `Cc1cccc(C(=O)Nc2ccc3c(c2)C[C@@H](NCc2scnc2C)C3)c1-c1ccc(C(F)(F)F)cc1`, the IC50 was 0.16 µM in experiment [1], 0.12 µM in experiment [2] and 0.17 µM in experiment [3].

As for `CC1=C2C[C@H]3[C@@H](CC=C4C[C@@H](O)CC[C@@]43C)[C@@H]2CC[C@]12O[C@@H]1C[C@H](C)CN[C@H]1[C@H]2C` [CYCLOPAMINE], the concentration for half-maximal inhibition (IC50) in experiment [1] is 0.046 µM.

For `Cc1cccc(C(=O)Nc2ccc3c(c2)CC(NC(=O)c2ccccc2)C3)c1-c1ccc(C(F)(F)F)cc1` (racemic), the concentration for half-maximal inhibition (IC50) in experiment [1] was 0.6 µM.

Turning to `Cc1cccc(C(=O)Nc2ccc3c(c2)C[C@@H](NC(C)c2ccccc2)C3)c1-c1ccc(C(F)(F)F)cc1` (some centres not stated), the IC50 in experiment [1] was determined as 0.088 µM; in experiment [2], 0.029 µM; in experiment [3], 0.032 µM.

As for `Cc1cccc(C(=O)Nc2ccc3c(c2)C[C@@H](NCc2cccs2)C3)c1-c1ccc(C(F)(F)F)cc1`, the IC50 amounted to 0.01 µM in experiment [1], 0.009 µM in experiment [2] and 0.007 µM in experiment [3].

Turning to `Cc1cccc(C(=O)Nc2ccc3c(c2)CC(NCc2ccccc2)C3)c1-c1ccc(C(F)(F)F)cc1` (racemic), in experiment [1], the IC50 came out at 0.093 µM.

Consider `Cc1cccc(C(=O)Nc2ccc3c(c2)C[C@@H](NCc2ccccc2)C3)c1-c1ccc(C(F)(F)F)cc1`, for which the half-inhibitory concentration (IC50) came out at 0.021 µM in experiment [1], 0.008 µM in experiment [2] and 0.014 µM in experiment [3].

Regarding `O=C(Nc1ccc2c(c1)CC(NCc1ccccn1)C2)c1ccccc1-c1ccc(C(F)(F)F)cc1` (racemic), the half-maximal inhibitory concentration (IC50) in experiment [1] was 0.2 µM; in experiment [2], 0.49 µM; in experiment [3], 0.79 µM.

For `COC(=O)N[C@@H]1Cc2ccc(NC(=O)c3cccc(C)c3-c3ccc(C(F)(F)F)cc3)cc2C1`, the IC50 stood at 1.2 µM in experiment [1], 2.48 µM in experiment [2], 3.42 µM in experiment [3] and 0.0009 µM in experiment [4].

Consider `COc1ccc(CN[C@H]2Cc3ccc(NC(=O)c4cccc(C)c4-c4ccc(C(F)(F)F)cc4)cc3C2)cc1`, for which the half-maximal inhibitory concentration (IC50) in experiment [1] came out at 0.36 µM; in experiment [2], 0.093 µM; in experiment [3] it was 0.12 µM.

In the case of `COC(=O)N[C@H]1Cc2ccc(NC(=O)c3cccc(C)c3-c3ccc(C(F)(F)F)cc3)cc2C1`, the IC50 in experiment [1] was 2.15 µM; in experiment [2] it was 5.09 µM; in experiment [3], 7.52 µM; in experiment [4], 0.0043 µM.

`Cc1cccc(C(=O)Nc2ccc3c(c2)C[C@@H](NC(c2ccccc2)C(F)(F)F)C3)c1-c1ccc(C(F)(F)F)cc1` (some centres not stated): the 50% inhibitory concentration (IC50) was 0.033 µM in experiment [1], 0.057 µM in experiment [2] and 0.055 µM in experiment [3].

In the case of `Cc1cccc(C(=O)Nc2ccc3c(c2)C[C@@H](NCc2ccco2)C3)c1-c1ccc(C(F)(F)F)cc1`, the 50% inhibitory concentration (IC50) was 0.023 µM in experiment [1] and 0.014 µM in experiment [2].

As to `Cc1cccc(C(=O)Nc2ccc3c(c2)C[C@@H](NCc2nccs2)C3)c1-c1ccc(C(F)(F)F)cc1`, the IC50 in experiment [1] stood at 0.025 µM; in experiment [2], 0.01 µM; in experiment [3], 0.03 µM.

Consider `Cc1cccc(C(=O)Nc2ccc3c(c2)C[C@H](NCc2ccccn2)C3)c1-c1ccc(C(F)(F)F)cc1`, for which the IC50 is 4.89 µM in experiment [1], 8.77 µM in experiment [2] and 0.0035 µM in experiment [4].

Take `O=C(Nc1ccc2c(c1)CC(NCc1ccccn1)C2)c1ccccc1-c1ccccc1` (racemic): the IC50 stood at 1 µM in experiment [1], 1.42 µM in experiment [2] and 1.15 µM in experiment [3].

Regarding `Cc1cccc(C(=O)Nc2ccc3c(c2)C[C@@H](NCc2cnc4ccccc4c2)C3)c1-c1ccc(C(F)(F)F)cc1`, the IC50 in experiment [1] stood at 1.29 µM; in experiment [2] it was 0.35 µM; in experiment [3], 0.21 µM.

Turning to `COc1ccc(-c2ccc(C(F)(F)F)cc2)c(C(=O)Nc2ccc3c(c2)CC(NCc2ccccn2)C3)c1` (racemic), the IC50 in experiment [1] and in experiment [2] was over 5 µM each time.

On to `Cc1csc(CN[C@H]2Cc3ccc(NC(=O)c4cccc(C)c4-c4ccc(C(F)(F)F)cc4)cc3C2)n1`, for which the IC50 in experiment [1] came out at 0.017 µM; in experiment [2] it was 0.004 µM; in experiment [3] it was 0.007 µM.

In the case of `CC(=O)Nc1ccc(CN[C@H]2Cc3ccc(NC(=O)c4cccc(C)c4-c4ccc(C(F)(F)F)cc4)cc3C2)cc1`, the IC50 in experiment [1] was found to be 0.45 µM; in experiment [2], 0.36 µM; in experiment [3], 0.34 µM.

In the case of `Cc1ccc(-c2ccc(C(F)(F)F)cc2)c(C(=O)Nc2ccc3c(c2)CC(NCc2ccccn2)C3)c1` (racemic), the half-maximal inhibitory concentration (IC50) stood at 6.8 µM in experiment [1] and 8.68 µM in experiment [2].

For the compound `Cc1cccc(C(=O)Nc2ccc3c(c2)C[C@@H](Nc2ccccc2)C3)c1-c1ccc(C(F)(F)F)cc1`, the concentration for half-maximal inhibition (IC50) was determined as 0.041 µM in experiment [1], 0.082 µM in experiment [2] and 0.13 µM in experiment [3].

Turning to `Cc1cccc(C(=O)Nc2ccc3c(c2)C[C@@H](NCC2CCOC2)C3)c1-c1ccc(C(F)(F)F)cc1` (some centres not stated), the half-maximal inhibitory concentration (IC50) in experiment [1] is 3.7 µM; in experiment [2] it was 16.7 µM.

With `Cc1cccc(C(=O)Nc2ccc3c(c2)CC(NCc2ccccn2)C3)c1-c1ccc(C(F)(F)F)cc1` (racemic), the 50% inhibitory concentration (IC50) was 0.1 µM in experiment [1] and 0.11 µM in experiment [2].

Regarding `O=C(Nc1ccc2c(c1)CC(NCc1ccccn1)C2)c1ccccc1-c1ccc(Cl)cc1` (racemic), the IC50 came out at 4.95 µM in experiment [1] and 2.71 µM in experiment [2].

Take `COC(=O)NC1Cc2ccc(NC(=O)c3cccc(C)c3-c3ccc(C(F)(F)F)cc3)cc2C1` (racemic): the figures for the half-inhibitory concentration (IC50) in experiment [1], in experiment [2] and in experiment [3] were 1.33 µM, 2.96 µM and 2.7 µM, respectively.

Regarding `Cc1cccc(C(=O)Nc2ccc3c(c2)C[C@@H](NCc2ccncc2)C3)c1-c1ccc(C(F)(F)F)cc1`, the IC50 in experiment [1] stood at 0.15 µM; in experiment [2], 0.19 µM; in experiment [3], 0.24 µM.

`Cc1cccc(C(=O)Nc2ccc3c(c2)C[C@H](NCc2nccs2)C3)c1-c1ccc(C(F)(F)F)cc1`: the 50% inhibitory concentration (IC50) in experiment [1] stood at 4.27 µM; in experiment [2] it was 1.19 µM; in experiment [3], 0.77 µM.

The record behind these values is ChEMBL document CHEMBL1149081, “Identification and structure-activity relationships of ortho-biphenyl carboxamides as potent Smoothened antagonists inhibiting the Hedgehog signaling pathway” (Bioorg Med Chem Lett, 2009).
